Values of other authors in patent US20150209404A1, “CELLULAR BLOOD MARKERS FOR EARLY DIAGNOSIS OF ALS AND FOR ALS PROGRESSION” (YEDA RESEARCH AND DEVELOPMENT CO. LTD., priority 2010, published 2015).

Conditions: ALS patients; Copaxone given daily; both drugs effective in treating MS

Substance: glatiramer acetate [Copaxone]
- outcome of treatment in ALS: failed and were even detrimental
